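Cells were grown in 96-well plates and exposed to each compound for 48 hours at five concentrations; endpoints were interpolated linearly between bracketing concentrations, or set to the highest concentration if not reached. The concentration for 50% growth inhibition is given as GI50.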 The source made the active and inactive calls. Cut-off read from the data, not from the text of the source: active = GI50 up to about 1.1 µM and inactive = higher.
What was measured:
Assay in all cases: NCI anticancer screen, dose series, 48 h
[1] = tested on: SF-268
[2] = tested on: HOP-92
[3] = tested on: SK-MEL-28
[4] = tested on: OVCAR-5
[5] = tested on: SF-539
[6] = tested on: SK-MEL-2
[7] = tested on: NCI-H23
[8] = tested on: A498
[9] = tested on: SN12C
[10] = tested on: OVCAR-3
[11] = tested on: RXF 393
[12] = tested on: A549
[13] = tested on: EKVX
[14] = tested on: COLO 205
[15] = tested on: HCC 2998
[16] = tested on: SR
[17] = tested on: HCT-116

Measured: GI50

COc1ccc(CN(CCN(C)C)c2ccccn2)cc1.Cn1c(=O)c2[nH]c(Br)nc2n(C)c1=O
inactive: [1] > 100 µM | [2] 22.3 µM | [3] > 100 µM | [4] > 100 µM | [5] > 100 µM | [6] > 100 µM | [7] > 100 µM | [8] > 100 µM | [9] > 100 µM | [10] > 100 µM

O=C1CCC2(c3ccc(F)cc3)Nc3ncccc3N12 (centres undefined)
inactive: [11] > 100 µM | [1] > 100 µM | [12] > 100 µM | [2] > 100 µM | [13] > 100 µM | [3] > 100 µM | [4] > 100 µM | [5] > 100 µM | [14] > 100 µM | [6] > 100 µM | [7] > 100 µM | [8] > 100 µM | [9] > 100 µM | [15] > 100 µM | [10] > 100 µM

Cc1ccc(S(=O)(=O)N2CCN(C=S)CC2)cc1
inactive: [11] > 100 µM | [1] > 100 µM | [12] > 100 µM | [16] > 100 µM | [13] > 100 µM | [17] > 100 µM | [3] > 100 µM | [4] > 100 µM | [5] > 100 µM | [14] > 100 µM | [6] > 100 µM | [7] > 100 µM | [8] > 100 µM | [9] > 100 µM | [15] > 100 µM | [10] > 100 µM

O=C(CO)CC(=O)C(=O)Nc1cccc(C(F)(F)F)c1
inactive: [1] > 100 µM | [12] > 100 µM | [2] > 100 µM | [16] > 100 µM | [17] > 100 µM | [3] > 100 µM | [4] > 100 µM | [5] > 100 µM | [14] > 100 µM | [6] > 100 µM | [7] > 100 µM | [9] > 100 µM | [15] > 100 µM | [10] > 100 µM

Cc1cc(=O)n(-c2cc3cccccc-3n2)[nH]1
inactive: [11] 2.36 µM | [12] 12.4 µM | [13] 12.5 µM | [17] 2.16 µM | [3] 4.67 µM | [4] 15.5 µM | [5] 5.47 µM | [14] 14.4 µM | [7] 4.8 µM | [8] 16.8 µM | [9] 5.74 µM | [15] 12.1 µM | [10] 3.05 µM

COc1ccc(/C(Cl)=C(\C=O)c2ccc([N+](=O)[O-])cc2)cc1
inactive: [11] 11.5 µM | [1] 20.5 µM | [12] 17.7 µM | [2] 6.97 µM | [13] 21.8 µM | [3] 23 µM | [4] > 100 µM | [5] 12.6 µM | [14] 19.1 µM | [6] 6.98 µM | [7] 14 µM | [8] 22.4 µM | [9] 12.3 µM | [15] 21 µM | [10] 18.4 µM

CC12N=NNC1C(=O)NC2=O (centres undefined)
inactive: [1] > 100 µM | [12] > 100 µM | [2] > 100 µM | [16] > 100 µM | [13] > 100 µM | [17] > 100 µM | [3] > 100 µM | [5] > 100 µM | [14] > 100 µM | [6] > 100 µM | [7] > 100 µM | [8] 89.3 µM | [9] > 100 µM | [15] > 100 µM | [10] > 100 µM

COC(=O)CCC(=O)Nc1cccc(C(F)(F)F)c1
inactive: [11] > 100 µM | [1] > 100 µM | [12] > 100 µM | [2] > 100 µM | [13] > 100 µM | [3] > 100 µM | [4] > 100 µM | [5] > 100 µM | [14] > 100 µM | [6] > 100 µM | [7] > 100 µM | [8] > 100 µM | [9] > 100 µM | [15] > 100 µM | [10] > 100 µM

Cc1cc2c(C)nn(Cc3ccc(Cl)cc3Cl)c2c(C#N)c1C
inactive: [11] 67 µM | [1] > 100 µM | [12] 86.3 µM | [2] 35.9 µM | [16] > 100 µM | [13] > 100 µM | [17] 69.7 µM | [3] > 100 µM | [4] > 100 µM | [5] > 100 µM | [6] > 100 µM | [7] > 100 µM | [9] > 100 µM | [15] > 100 µM | [10] > 100 µM

CN1CCc2c1nc(-c1ccc(Cl)cc1)c1c2N(C)CC1
inactive: [11] 10.9 µM | [1] 21.5 µM | [12] 18.3 µM | [13] 35.1 µM | [17] 1.85 µM | [4] 24.1 µM | [5] 15.4 µM | [14] 2.07 µM | [6] > 100 µM | [7] 14.8 µM | [8] 19.7 µM | [9] 23.1 µM | [15] 19.4 µM | [10] 1.51 µM

CC(C)(C)[Si](C)(C)OC1C(=O)C[C@H]2CCCC[C@@H]12 (some centres undefined)
inactive: [11] > 100 µM | [1] > 100 µM | [12] > 100 µM | [2] 20.2 µM | [13] > 100 µM | [17] > 100 µM | [4] > 100 µM | [5] > 100 µM | [14] > 100 µM | [6] > 100 µM | [7] > 100 µM | [8] > 100 µM | [9] > 100 µM | [15] > 100 µM | [10] > 100 µM

Nc1nc2[nH]cnc2c(=O)[nH]1
inactive: [11] > 100 µM | [1] > 100 µM | [12] > 100 µM | [2] > 100 µM | [16] > 100 µM | [13] > 100 µM | [17] > 100 µM | [3] > 100 µM | [4] > 100 µM | [5] > 100 µM | [14] > 100 µM | [6] > 100 µM | [7] > 100 µM | [8] > 100 µM | [9] > 100 µM | [10] > 100 µM

NC1CCC[C@H]1O (some centres undefined)
inactive: [11] > 100 µM | [1] > 100 µM | [12] > 100 µM | [2] > 100 µM | [13] > 100 µM | [17] > 100 µM | [3] > 100 µM | [5] > 100 µM | [14] > 100 µM | [6] > 100 µM | [7] > 100 µM | [8] > 100 µM | [9] > 100 µM | [15] > 100 µM | [10] > 100 µM

O=C(NN1C(=O)C(Cl)C1c1c(O)ccc2ccccc12)c1ccccc1O (centres undefined)
inactive: [11] > 100 µM | [1] > 100 µM | [12] > 100 µM | [17] > 100 µM | [3] > 100 µM | [5] > 100 µM | [6] > 100 µM | [7] > 100 µM | [8] 8.45 µM | [9] > 100 µM | [10] > 100 µM
